# “And” between values parts separate entries of the source, which are not always exact repeats. Equal values may be shown once. Oligonucleotides are written 5' to 3', each unit as a sugar letter and its base; * is a phosphorothioate linkage, no mark a phosphodiester; rarer units and linkages stand in square brackets, end groups in braces. Plain capitals give the bases only. e = 2'-O-(2-methoxyethyl) (MOE); [5mC] = 5-methylcytosine; d = 2'-deoxy (DNA)
# Tests used:
# [1] = tested on: RPMI 8226 (human myeloma) xenograft; test: In vivo activity of custirsen with Velcade, RPMI 8226 xenograft (Example 14); conditions: for weight / Δ weight / volume / Δ volume / % of baseline / Δ %: later day (day not given); for volume / Δ volume: tumor; for % of baseline / Δ %: weight
# Description: The cells were implanted subcutaneously into female SCID mice with 7×10^6 cells inoculum.
# Tumors and body weights were measured weekly until termination of the study on day 71. Response to treatment was evaluated for tumor growth inhibition (TGI) and tumor growth delay (TGD).
# 70 CB.17 SCID female mice, 4-6 weeks old, 16-20 grams, obtained from Harlan animal breeding center.
# Sample from the cell suspension was taken for counting (0.3 ml in duplicates for CEDEX) before spun down. Cell viability was 85.6% and live cell concentration was 167×10^5 cells/ml. The pellet was resuspended in HBSS to a final volume of 8 ml.
# Tumors were implanted subcutaneously with RPMI-8226 cells into the right flank of the mouse on Day 0. Each animal received a s.c. injection 7×10^6 cells in 0.1 ml suspension. On day 20, mice were sorted by the optimal tumor volume ([…]) and were allocated into 5 groups of 10 mice. Mice were individually tagged and their tumor volume and body weight were monitored weekly during the study. Tumor size was measured by caliper and calculated using the formula: […]
# The treatment started on […] (0.2 ml per 20 grams v/w) and continued till day 52, after which the remaining mice were left for observation until day 71.
# lung cancer = assay type: in vivo, human; conditions: each group; loading doses then custirsen with a chemotherapeutic agent
# Text: At least 50 lung cancer patients are separated into two groups.
# ovarian cancer = assay type: in vivo, human; conditions: each group; loading doses then custirsen with a chemotherapeutic agent
# Text: At least 50 ovarian cancer patients are separated into two groups.
# NSCLC = assay type: in vivo, human; conditions: each group; loading doses then custirsen with a chemotherapeutic agent
# Text: At least 50 NSCLC patients are separated into two groups.
# [2] = in vivo
# [3] = in vivo; remark: listed apart in the source
# [4] = in vivo; remark: listed apart in the source
# [5] = Custirsen up-titration with dexamethasone premedication, tolerability and ECG Holter (discussion); conditions: with or without premedication with dexamethasone
# [6] = Phase I dose-escalation Study OGX-011-01, custirsen with neoadjuvant hormone therapy, prostate cancer patients; conditions: 40 mg to 640 mg custirsen, repeated doses with neoadjuvant hormone therapy
# [7] = OGX 40 ip qd*5, twk, group Mean, n 10
# [8] = OGX 40 ip qd*5, twk, group Mean, n 10, vs Day 20
# [9] = OGX 40 ip qd*5, twk, individual mouse, listed as OGX
# [10] = OGX 40 ip qd*5, twk, individual mouse, vs Day 20, listed as OGX
# [11] = OGX 40 ip qd*5, twk, group mean
substance,measurement,setting,value
"Custirsen: anti-clusterin antisense oligonucleotide CAGCAGCAGAGTCTTCATCAT, phosphorothioate backbone, 2′-O-methoxyethyl at nucleotides 1-4 and 18-21, 5-methylcytosines at 1, 4, 19 (antisense e[5mC]*eA*eG*e[5mC]*dA*dG*dC*dA*dG*dA*dG*dT*dC*dT*dT*dC*dA*eT*e[5mC]*eA*eT; listed as Homo sapiens)",Day 20 volume,[1]; [7],142.8
same,Day 20 weight,[1]; [7],18.5
same,Day 27 % of baseline (weight),[1]; [7],102.6%
same,Day 27 volume,[1]; [7],219.2
same,Day 27 weight,[1]; [7],19.0
same,Day 34 % of baseline (weight),[1]; [7],95.3%
same,Day 34 volume,[1]; [7],263.1
same,Day 34 weight,[1]; [7],17.7
same,Day 27 Δ % (weight),[1]; [8],2.6%
same,Day 27 Δ volume,[1]; [8],76.4
same,Day 27 Δ weight,[1]; [8],0.4
same,Day 34 Δ % (weight),[1]; [8],−4.7%
same,Day 34 Δ volume,[1]; [8],120.3
same,Day 34 Δ weight,[1]; [8],−0.8
same,Day 20 volume,[1]; [9],119 and 124 and 125 and 139 and 141 and 145 and 151 and 155 and 162 and 169
same,Day 20 weight,[1]; [9],16.1 and 17.7 and 17.1 and 20.6 and 19.7 and 18.6 and 18.4 (2×) and 20.0 and 18.9
same,Day 27 % of baseline (weight),[1]; [9],113.2% and 102.5% and 100.3% and 98.7% and 102.4% and 101.7% and 100.5%
same,Day 27 volume,[1]; [9],96 and 207 and 171 and 249 and 222 and 246 and 319 and 193 and 217 and 271
same,Day 27 weight,[1]; [9],18.2 (2×) and 18.0 and 20.8 and 19.7 and 18.4 and 18.9 and 20.3 and 18.6 and 19.0
same,Day 34 % of baseline (weight),[1]; [9],84.3% and 98.1% and 99.6% and 94.5% and 97.3% and 96.5% and 98.9% and 95.3% and 93.3% and 95.4%
same,Day 34 volume,[1]; [9],98 and 244 and 223 and 257 and 305 and 336 and 371 and 220 and 266 and 312
same,Day 34 weight,[1]; [9],13.5 and 17.4 and 17.1 and 19.5 and 19.1 and 18.0 (2×) and 18.2 and 19.0 and 17.2
same,Day 41 % of baseline (weight),[1]; [9],100.4% and 100.3% and 99.5% and 95.8% and 100.1% and 104.4% and 101.6%
same,Day 41 volume,[1]; [9],454 and 474 and 560 and 267 and 320 and 457 and 410 and 295 and 322
same,Day 41 weight,[1]; [9],19.8 and 18.7 and 19.5 and 19.9 and 17.6 and 18.9 and 18.8 and 17.9 and 20.9
same,Day 45 % of baseline (weight),[1]; [9],104.1% and 102.7% and 111.4% and 101.5% and 108.1% and 109.8%
same,Day 45 volume,[1]; [9],587 and 584 and 826 and 467 and 428 and 490 and 511 and 272 and 579
same,Day 45 weight,[1]; [9],20.5 and 19.1 (2×) and 20.6 and 21.1 and 18.7 and 19.2 and 18.8 and 21.9
same,Day 27 Δ % (weight),[1]; [10],13.2% and 2.5% and 4.8% and 1.1% and 0.3% and −1.3% and 2.4% and 1.7% and 0.8% and 0.5%
same,Day 27 Δ volume,[1]; [10],−23.1 and 84.0 and 46.2 and 110.4 and 81.2 and 100.3 and 168.8 and 38.8 and 55.3 and 102.6
same,Day 27 Δ weight,[1]; [10],2.1 and 0.4 (2×) and 0.8 and 0.2 (2×) and 0.1 (2×) and −0.3 and 0.3
same,Day 34 Δ % (weight),[1]; [10],−15.7% and −1.9% and −0.4% and −5.5% and −2.7% and −3.5% and −1.1% and −4.7% and −6.7% and −4.6%
same,Day 34 Δ volume,[1]; [10],−20.6 and 120.3 and 97.9 and 117.8 and 163.9 and 190.8 and 219.9 and 65.4 and 104.3 and 142.9
same,Day 34 Δ weight,[1]; [10],−2.5 and −0.3 and −0.1 and −1.1 and −0.5 and −0.6 and −0.2 and −0.9 (2×) and −1.2
same,Day 41 Δ % (weight),[1]; [10],0.4% and 0.3% and 5.9% and −0.5% and −4.2% and 0.1% and 6.0% and 4.4% and 1.6%
same,Day 41 Δ volume,[1]; [10],313.0 and 328.4 and 409.6 and 112.3 and 157.8 and 288.2 and 286.2 and 170.4 and 183.5
same,Day 41 Δ weight,[1]; [10],0.1 (2×) and 1.1 (2×) and −0.1 and −0.8 and 0.0 and 0.8 and 0.3
same,Day 45 Δ % (weight),[1]; [10],4.1% and 2.7% and 11.4% and 5.6% and 1.5% and 1.3% and 8.1% and 9.8% and 6.1%
same,Day 45 Δ volume,[1]; [10],446.1 and 439.0 and 675.2 and 313.0 and 266.0 and 321.7 and 388.0 and 147.2 and 440.5
same,Day 45 Δ weight,[1]; [10],0.8 and 0.5 and 2.1 and 1.1 and 0.3 and 0.2 and 1.4 and 1.7 and 1.3
same,weight,[1]; [11],20.5
same,Δ weight,[1]; [11],1.6
same,volume,[1]; [11],1717.4
same,Δ volume,[1]; [11],1572.6
same,% of baseline,[1]; [11],108.3%
same,Δ %,[1]; [11],8.3%
same,weight,[1]; [9],21.04 and 22.19 and 19.81 and 20.11
same,Δ weight,[1]; [9],1.4 (2×) and 2.2 and 1.2
same,volume,[1]; [9],2185 and 1918 and 1519 and 2426
same,Δ volume,[1]; [9],2043.7 and 1763.0 and 1357.1 and 2257.1
same,% of baseline,[1]; [9],106.9% and 111.2% and 107.7% and 106.4%
same,Δ %,[1]; [9],6.9% and 11.2% and 7.7% and 6.4%
same,mice died,"[1]; custirsen 40 mg/kg group, day 34",one
same,injections given before treatment was stopped due to toxicity,"[1]; custirsen 40 mg/kg, both groups (5 consecutive + 2 on the next week)",7 injections
same,tumor growth inhibition by the end of the study,"[1]; custirsen 40 mg/kg, either alone or in combination",significantly inhibited tumor growth
same,cancer condition of patients,lung cancer,improves
same,cancer condition of patients,ovarian cancer,improves
same,cancer condition of patients,NSCLC,improves
same,INR values,[2],≤ 1.5
same,reports of grade 2 toxicity for PTT,[2],2 reports
same,grade-4 liver toxicity,[3],no reports
same,incidence of elevated liver function tests (ELFTs),[3],higher incidence
same,"incidence of the most common adverse events (fatigue, chills, nausea, pyrexia, etc.)",[4],more than 20 % of the patients
same,occurrence of grade 3/4 renal toxicity,[4],rare
same,effect of up-titration (reduced loading doses) on constitutional syndrome / side effects,[5],mitigated
same,"dose limiting toxicities, deaths, AEs leading to withdrawal",[6],"No dose limiting toxicities, deaths, or adverse events (AEs) leading to withdrawal were reported"

# — patent US9364496B2 (ONCOGENEX TECHNOLOGIES INC., priority 2013, dated 2016)
